Results reported in patent US12599660B2, “Therapeutic RNA for HPV-positive cancer” (priority 2020, dated 2026).

System: TC-1 luc tumors
Assay: TC-1 luc tumor model with E7 RNA-LPX and cisplatin chemotherapy: tumor growth and survival
Type: in vivo, C57BL/6 mice
Conditions: 40 μg RNA-LPX day 16, 80 μg cisplatin or PBS i.p. day 22 and 28
Experimental: For therapeutic tumor experiments, C57BL/6 mice were injected with 1×10^5 TC-1 or TC-1 luc tumor cells and 5×10^5 C3 tumor cells subcutaneously into to the right flank. Tumor growth was measured unblinded with a caliper every three to four days and tumor volumes calculated by (a^2 x b)/2 (a, width; b, length). Mice were immunized intravenously with 40 μg E7 or control (OVA) RNA-LPX. Arrows in vaccination schemes indicate immunization. Mice were randomized according to their tumor size prior RNA-LPX immunization. The orthovoltage X-ray source XRAD320 (Precision X-Ray Inc.) was used for tumor irradiation, irradiating tumors locally with different doses at a dose rate of 0.47 Gy/min. Biological effective doses were calculated using the formula
In some experiments, mice received 80 μg cisplatin chemotherapy or PBS intraperitoneal (i.p.) twice after RNA-LPX vaccination.
For Example 9, Statistical analysis was performed with GraphPad PRISM 9. For tumor growth analysis, two-way analysis of variance (ANOVA) was performed and when determined significant (p<0.05), Tukey's multiple comparison test run.

In the case of N.N.[Cl][Pt][Cl] [Cisplatin, cis-diamminedichloroplatinum (II)], the tumor growth was “only slightly improved tumor growth”.
